Laboratory results taken from BindingDB's records for doi:10.1021/acs.jmedchem.0c00899 (Ut Southwestern Medical Center, 2020).

Legend:
[1] = Inhibition of SCD in human NCI-H2122 cells expressing CYP4F11 assessed as reduction in cell viability incubated for 96 hrs by cell titer Glo reagent based assay
[2] = Inhibition of SCD in human H2009 cells non-expressing CYP4F11 assessed as reduction in cell viability incubated for 96 hrs by cell titer Glo reagent based assay
[3] = Inhibition of SCD in human NCI-H1155 cells non-expressing CYP4F11 assessed as reduction in cell viability incubated for 96 hrs by cell titer Glo reagent based assay

Structure (SMILES) | IC50 [1] [µM] | IC50 [2] [µM] | IC50 [3] [µM]
COc1ccc2nc(NS(=O)(=O)c3ccccc3)sc2c1 | > 50 |  | 
O=C(Nc1ncc(-c2ccccc2)s1)c1ccc(C(=O)c2ccccc2)cc1 | 5.8 | 5 | 
O=C(Nc1nc2ccccc2s1)c1cccnc1 | 0.26 | > 50 | 
O=C(Nc1nc2ccccc2[nH]1)c1ccc(C(=O)c2ccccc2)cc1 | 0.042 | 1.8 | 
O=C(Nc1nc(-c2ccccc2)cs1)c1ccc(C(=O)c2ccccc2)cc1 | 4.7 | 14.9 | 
O=C(Nc1nccs1)c1ccc(C(=O)c2ccccc2)cc1 | 33 | > 50 | 
COc1ccc(C(=O)Nc2nc3cc(N)ccc3s2)cc1 | > 50 | > 50 | 
COc1ccc2nc(NC(=O)c3ccc(C(=O)N4CCN(C)CC4)cc3)sc2c1 | > 50 | > 50 | 
COc1ccc2nc(NC(=O)CCc3ccccc3)sc2c1 | > 50 |  | 
Cc1nnc(-c2ccc(N3CCC(Oc4cc(F)ccc4Cl)CC3)nn2)o1 | < 0.01 |  | < 0.01
O=C(Nc1nc2ccccc2o1)c1ccc(C(=O)c2ccccc2)cc1 | 43 |  | 
COc1ccc2nc(NC(=O)c3cccnc3)sc2c1 | 1.1 | 37 | 
